Data on six compounds can be found in patent publication US4668684A, “Combination of flupirtin and anticholinergic acting spasmolytic” (priority 1985, dated 1987).

In data set [1] the test system is gastrointestinal passage (guinea pigs). In words: Carbon transport model (influence on the gastrointestinal passage). Format: in vivo, guinea pig. Conditions: alone; for ED50: peroral, linear regression; for Spasmolytic Effect, Retardation in %: negative value. How it is done: Relying on Komlus and Pet/o/ cz (and modifications) (1970) Arzneim Forsch. Volume 20, pages 1338-1357 guinea pigs received 30 minutes after being given the substance a 10% carbon suspension in demineralized water in a volume of 1 ml/animal dispensed with the stomach probe. 0.5 hours later the animals were killed and starting from the stomach there was measured on one animal the entire length of intestine, on the others the length of the stretch blackened by the carbon. The stretch changed by the carbon was calculated in percent of the entire length in order to compensate for the different intestinal lengths of the individual animals in the evaluation of the effect of the substance. The effect on the gastro-intestinal passage is given from the comparison between the control and the animals (average value) treated with the substances. Ascertaining the ED50 (dosage in mg/kg at which there is 50% retardation of the carbon transport) is by means of linear regression.
Retardation of carbon transport signifies spasmolytic effect. The greater this retardation the greater also is the spasmolytic effect.
*Calculation of the ED50 by means of linear regression

In data set [2] the test system is guinea pig small intestine. In words: Spasmolytic effect on the guinea pig small intestine in situ (acetylcholine spasm). It counts as in vivo. Conditions: for % Spasmolytic Effect / Spasmolytic activity (in words): alone; for % Spasmolytic Effect: negative value; for Spasmolytic activity (in words): intraduodenally. How it is done:
A balloon catheter was introduced into the ileum of guinea pigs narcotized with urethane (1.8 g/kg subcutaneously) after tracheotomy (tying up a tracheal channel to make breathing easier) and the catheter filled with air. Rhythmic contractions were carried out by the intestine, the so-called […] (dependent upon filling), through which a pressure is exerted on the rubber balloon. The pressure […] changes were recorded on a linear recorder via a pressure recorder connected to the balloon catheter and a carrier frequency bridge (TF of Hellige Co.). On one there can be measured the spontaneous […], on the other the spasms released by superfusion of […] (acetylcholine iodide, barium chloride or carbachol). By previously giving the […] intravenously or intraduodenally the height of the spasms released is retarded and can be determined in percent spasmolysis compared to a starting value. There is given as spasmolytic effect or spasmolysis how great a percent of spasm is liberated by the spasmogen (e.g. acetylcholine iodide) compared to the value which originates from the spasmogen (on the same animal).

The subject of data set [3] is gall bladder of the mouse. In words: Gall bladder model on the mouse, spasmolytic effect. Format: in vivo, NMRI-Mouse. The settings on record: alone; for ED50: Mus musculus, po, peroral, linear regression. How it is done: The experiment is carried out relying on the methods of […] and Toson, J. Pharmacol. Methods Volume 7, pages 193 et. seq. (1982). The principle of this method is the gravimetric measurement of the gall bladder of the mouse. The gall bladder was stimulated through dispensation of egg yolk for delivery of bile. This delivery was carried out through natural spasms of the gall bladder. By previously dispensing a spasmolytically acting test material these spasms of the gall bladder were retarded and therewith likewise the delivery of bile. Thus the heavier the gall bladder is after dispensing the egg yolk the less bile it has delivered. The weight of the gall bladder in this test therefore is a measure of the spasmolytic effect of a material. […] The control animals received Methocel in the corresponding amount. […] Because of the evaluation 2 control groups must be present. […] The egg yolk suspension consisted of 3 parts by weight egg yolk in 7 parts by weight NaCl 0.9%. For this reason control group No. 1 also received 1 ml NaCl 0.9%. […] The gall bladder was prepared and weighed. The evaluation was carried out according to the formula: [(A-B)/(C-B)]×100=% Activity […]

In data set [4] the test system is writhing syndrome (mouse). Nature of the data set: Acetic acid test (Writhing test) on the mouse, analgetic effect. Format: in vivo, NMRI-Mouse. The settings on record: alone; for ED50: Mus musculus, po, 0.5 h, read-out: ED50 after 30 minutes; for Analgetic Effect in %: average of 10 mice.
A further data set is described as follows: in vivo. Conditions: mouse, po.

A word on the ED50: it is the dose that gives a 50% effect, or the effect in half of the subjects. Broadly, the LD50 is the dose expected to kill half of the subjects tested. A lower LD50 goes with a more toxic substance.

Molecules are shown by their SMILES. Counter-ions that a name gives are not always drawn. Like-named read-outs stand apart in the source and are kept apart here.

Regarding `CCCC[N+]1(C)C2CC(OC(=O)C(CO)c3ccccc3)CC1C1OC12` (stereo not shown) [Butylscopolammonium bromide, butylscopolammonium bromide], the ED50 in data set [1] (Cavia porcellus, po, read-out: ED50) turned out to be 132 mg/kg; in data set [3] it was 117 mg/kg; in data set [4] (per os, linear regression) it was 1.5 mg/kg. Besides, the “Spasmolytic Effect, Retardation in %” value is -8.16% in data set [1] (30.0 mg/kg peroral), -58.39% in data set [1] (100.0 mg/kg peroral) and -61.62% in data set [1] (300.0 mg/kg peroral). Besides, the “% Spasmolytic Effect” value in data set [2] (50.0 mg/kg intraduodenally, 30 minutes after dispensation) is listed as -13.1%; in data set [2] (100.0 mg/kg intraduodenally, 30 minutes after dispensation), -37.9%; in data set [2] (200.0 mg/kg intraduodenally, 30 minutes after dispensation), -35.0%. The “Spasmolytic activity (in words)” value in data set [2] is on record as “no dosage dependent spasmolytic activity”. In addition, the “Spasmolytic Effect in %” value in data set [3] (3.0 mg/kg peroral) was 4.6%; in data set [3] (10.0 mg/kg peroral), 19.1%; in data set [3] (30.0 mg/kg peroral), 20.7%; in data set [3] (100.0 mg/kg peroral), 35.9%; in data set [3] (300.0 mg/kg peroral), 76.6%. Moreover, the “Analgetic Effect in %” value in data set [4] (0.5 mg/kg per os) is listed as 22.4%; in data set [4] (1.0 mg/kg per os) it was 48.4%; in data set [4] (2.0 mg/kg per os), 64.6%; in data set [4] (4.0 mg/kg per os) it was 59.0%.

Consider `CCOC(=O)Nc1ccc(NCc2ccc(F)cc2)nc1N` [Flupirtin (Gluconate), 2-amino-3-carbethoxyamino-6-(4-fluoro-benzylamino)-pyridine], for which the “Analgetic Effect in %” value in data set [4] (0.56 mg/kg per os) is reported as 19.2%; in data set [4] (1.12 mg/kg per os) it was 28.0%; in data set [4] (2.24 mg/kg per os), 37.6%; in data set [4] (4.47 mg/kg per os), 46.4%; in data set [4] (8.93 mg/kg per os), 38.4%; in data set [4] (17.85 mg/kg per os), 22.4%. The “Analgetic Effect in %” value in data set [4] (35.7 mg/kg per os) turned out to be 61.6%.

On to `CCOC(=O)Nc1ccc(NCc2ccc(F)cc2)nc1N` [Flupirtin (Maleate), 2-amino-3-carbethoxyamino-6-(4-fluoro-benzylamino)-pyridine], for which the “Spasmolytic effect / ED50 (in words)” value in data set [2] (alone, 10.0, 30.0 and 50.0 mg/kg intraduodenally, 30 minutes after dispensation) is “no spasmolytic”. Besides, the ED50 in data set [4] (per os, linear regression) was 44.7 mg/kg. Moreover, the “Analgetic Effect in %” value in data set [4] (20.0 mg/kg per os) was found to be 12.0%; in data set [4] (40.0 mg/kg per os), 54.0%; in data set [4] (80.0 mg/kg per os) it was 70.0%.

For `CC[N+](C)(CC)CCOC(C)(c1ccccc1)C1CC2C=CC1C2.[Br-]` (stereo not shown) [Ciclonium bromide], the figures for the “Analgetic Effect in %” value in data set [4] (0.01 mg/kg per os), in data set [4] (0.1 mg/kg per os) and in data set [4] (0.5 mg/kg per os) were 18.5%, 46.3% and 53.1%, respectively. Further, in data set [4] (per os, linear regression), the “ED50 after 30 minutes” value stood at 0.26 mg/kg.

Take `CCOC(=O)Nc1ccc(NCc2ccc(F)cc2)nc1N` [Flupirtin, 2-amino-3-carbethoxyamino-6-(4-fluoro-benzylamino)-pyridine]: in the data set “in vivo”, the median lethal dose (LD50) stood at 552 mg/kg. The ED50 result in data set [1] is on record as “cannot be calculated”. Moreover, the “Spasmolytic activity (in words)” value in data set [2] is “no spasmolytic activity”.

Turning to `CCOC(=O)Nc1ccc(NCc2ccc(F)cc2)nc1N` [Flupirtin (HCl), 2-amino-3-carbethoxyamino-6-(4-fluoro-benzylamino)-pyridine], the entries for the “Spasmolytic Effect, Retardation in %” value in data set [1] (20.0 mg/kg peroral), in data set [1] (40.0 mg/kg peroral) and in data set [1] (80.0 mg/kg peroral) were -11.73%, -21.55% and -18.70%, respectively. In addition, the median effective dose (ED50) entry in data set [1] was “not dosage depen-”; in data set [3], 2.4 mg/kg. Moreover, the “Spasmolytic Effect in %” value stood at 30.06% in data set [3] (1.0 mg/kg peroral), 64.36% in data set [3] (3.0 mg/kg peroral) and 69.25% in data set [3] (10.0 mg/kg peroral).
